Key:
Hepatocyte [1] = assay: Antihepatotoxic activity against CCl4-induced toxicity in rat hepatocytes assessed as effect on GPT activity at 5 uM by Reitman-Fankel method relative to control; type: functional
Hepatocyte [2] = assay: Antihepatotoxic activity against CCl4-induced toxicity in rat hepatocytes assessed as effect on SDH activity at 5 uM by Geralch method relative to control; type: functional

For `CCCCCCCCC/C=C\CC/C=C/[C@@H](O)[C@H](CO[C@@H]1O[C@H](CO)[C@@H](O)[C@H](O)[C@H]1O)NC(=O)[C@H](O)CCCCCCCCCCCCCCCCCC`, the Activity (Hepatocyte [1]) was 53.8% and the Activity (Hepatocyte [2]) was 51.2%.
For `CCCCCCCCC/C=C/CC/C=C/[C@@H](O)[C@H](CO[C@@H]1O[C@H](CO)[C@@H](O)[C@H](O)[C@H]1O)NC(=O)C(O)CCCCCCCCCCCCCCCC` (some centres not stated), the Activity (Hepatocyte [1]) was 51.6% and the Activity (Hepatocyte [2]) was 46.1%.
Work on `CCCCCCCCC/C=C\CC/C=C/[C@@H](O)[C@H](CO[C@@H]1O[C@H](CO)[C@@H](O)[C@H](O)[C@H]1O)NC(=O)C(O)CCCCCCCCCCCCCCCC` (some centres not stated) yielded an Activity (Hepatocyte [1]) of 35.1% and an Activity (Hepatocyte [2]) of 36.9%.
Work on `CCCCCCCCC/C=C\CC/C=C/[C@@H](O)[C@H](CO[C@@H]1O[C@H](CO)[C@@H](O)[C@H](O)[C@H]1O)NC(=O)C(O)CCCCCCCCCCCCCC` (some centres not stated) yielded an Activity (Hepatocyte [1]) of 54.4% and an Activity (Hepatocyte [2]) of 71.2%.
`CCCCCCCCC/C=C/CC/C=C/[C@@H](O)[C@H](CO[C@@H]1O[C@H](CO)[C@@H](O)[C@H](O)[C@H]1O)NC(=O)C(O)CCCCCCCCCCCCCCCCCC` (some centres not stated) showed an Activity (Hepatocyte [1]) of 22.5% and an Activity (Hepatocyte [2]) of 7.2%.
Work on `COc1cc(C2Oc3cc([C@H]4Oc5cc(O)cc(O)c5C(=O)[C@@H]4O)ccc3OC2CO)ccc1O` (some centres not stated) [SILIBININ] yielded an Activity (Hepatocyte [1]) of 48.7% and an Activity (Hepatocyte [2]) of 42.3%.

From ChEMBL document CHEMBL1158242, “New bioactive cerebrosides from Arisaema amurense” (1996)
